The values that follow come from patent US11214803B2, “Modulators of YAP1 expression” (Ionis Pharmaceuticals, Inc., priority 2019, dated 2022).

Marks after values point to notes of the source that are not given here. Strand notation (5' to 3'): a small letter for the sugar, then the base; units joined by * are phosphorothioate-linked, units joined directly phosphodiester-linked; [ ] holds rarer units or linkages, { } end groups; capitals alone tell only the bases. k = constrained ethyl (cEt); [5mC] = 5-methylcytosine; d = 2'-deoxy (DNA)

In the first data set the test system is Yap1 mRNA. Description: Antisense inhibition of human Yap1 in A-431 cells by cEt gapmers, single dose (Example 3, RTS36584). The data set is classed as cell-based. To be noted: Table 8; A-431 cells, 5,000 cells per well, free uptake, 2,000 nM, approximately 48 hours; RTS36584; normalized to RIBOGREEN; Yap1 mRNA relative to untreated control cells. A digest of the protocol:
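Values are % untreated control: Yap1 mRNA by quantitative RT-PCR (RTS36584), normalized to total RNA by RiboGreen. Before RNA isolation, 5,000 A-431 cells per well were exposed ~48 h to 2,000 nM 16-mer cEt gapmer, delivered without transfection reagent.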
For the substance “958374 (antisense k[5mC]*kA*kG*dA*dG*dG*dT*dG*d[5mC]*dT*dA*dG*d[5mC]*kT*kG*kG) [Compound 958374]”, the “YAP1 (% UTC)” value amounted to 38 % UTC.

For the substance “958391 (antisense kA*kG*k[5mC]*dG*dA*dA*dG*dG*dT*dG*d[5mC]*dG*dG*kA*kG*k[5mC]) [Compound 958391]”, the “YAP1 (% UTC)” value is 102 % UTC.

As for “958416 (antisense kG*k[5mC]*kT*dG*dT*dG*dT*dA*dG*dG*d[5mC]*dT*dG*kA*k[5mC]*kT) [Compound 958416]”, the “YAP1 (% UTC)” value is 36 % UTC.

“958360 (antisense kT*k[5mC]*kG*dA*dA*d[5mC]*dA*dT*dG*d[5mC]*dT*dG*dT*kG*kG*kA) [Compound 958360]”: the “YAP1 (% UTC)” value is 12 % UTC.

As to “958400 (antisense kT*kT*kG*dA*d[5mC]*d[5mC]*dA*dA*d[5mC]*dT*dA*d[5mC]*dT*kT*kG*kA) [Compound 958400]”, the “YAP1 (% UTC)” value is on record as 26 % UTC.

As for “958401 (antisense kA*kG*kT*dT*dA*dT*dT*d[5mC]*dA*dG*d[5mC]*dA*dG*k[5mC]*kT*kT) [Compound 958401]”, the “YAP1 (% UTC)” value amounted to 19 % UTC.

Turning to “958379 (antisense kG*k[5mC]*kG*d[5mC]*d[5mC]*d[5mC]*dG*d[5mC]*d[5mC]*d[5mC]*dG*d[5mC]*dA*k[5mC]*k[5mC]*kG) [Compound 958379]”, the “YAP1 (% UTC)” value turned out to be 124 % UTC.

The same data set, now with this note: Table 9; A-431 cells, 5,000 cells per well, free uptake, 2,000 nM, approximately 48 hours; RTS36584; normalized to RIBOGREEN; Yap1 mRNA relative to untreated control cells.
On to “958791 (antisense k[5mC]*kA*kT*dA*dA*dG*dA*dA*dA*dA*dG*dA*d[5mC]*kG*kA*k[5mC]) [Compound 958791]”, for which the “YAP1 (% UTC)” value is given as 123 % UTC.

As to “958676 (kG*kA*kA*d[5mC]*dT*dT*dA*dG*dT*dT*d[5mC]*d[5mC]*d[5mC]*kT*kA*kT; antisense) [Compound 958676]”, the “YAP1 (% UTC)” value is recorded as 34 % UTC.

For the substance “958626 (antisense kT*kG*kG*dG*d[5mC]*dA*dA*dA*dG*dT*dT*d[5mC]*d[5mC]*kT*kA*kT) [Compound 958626]”, the “YAP1 (% UTC)” value came out at 158 % UTC.

Regarding “958486 (kT*kT*kA*dG*dA*dG*d[5mC]*d[5mC]*dA*dA*d[5mC]*dT*dG*kT*kG*kA; antisense) [Compound 958486]”, the “YAP1 (% UTC)” value is on record as 9 % UTC.

The data set is the same for the next values; noted with them: Table 10; A-431 cells, 5,000 cells per well, free uptake, 2,000 nM oligonucleotide, approx. 48 hours; primer probe set RTS36584; Yap1 mRNA normalized to RIBOGREEN, percent of untreated control.
For “958632 (antisense k[5mC]*kT*k[5mC]*d[5mC]*dG*dA*d[5mC]*dA*dG*dG*dA*dG*dA*k[5mC]*kT*kA) [Compound 958632]”, the “YAP1 (% UTC)” value stood at 55 % UTC.

On to “958762 (antisense kG*kA*kT*dT*dA*dG*dA*dG*dG*dA*d[5mC]*dT*d[5mC]*kA*kT*kT) [Compound 958762]”, for which the “YAP1 (% UTC)” value stood at 16 % UTC.

Take “958442 (antisense kG*kG*kA*dG*dA*dA*dG*d[5mC]*dG*dG*d[5mC]*dG*dA*k[5mC]*kG*kG) [Compound 958442]”: the “YAP1 (% UTC)” value was determined as 21 % UTC.

For the substance “958502 (k[5mC]*kT*kA*dT*dT*dA*dA*d[5mC]*dA*dG*dA*dT*dT*k[5mC]*kA*k[5mC]; antisense) [Compound 958502]”, the “YAP1 (% UTC)” value was found to be 13 % UTC.

The data set is the same for the next values; noted with them: Table 11; A-431 cells, 5,000 cells per well, free uptake, 2,000 nM oligonucleotide, approx. 48 hours; primer probe set RTS36584; Yap1 mRNA normalized to RIBOGREEN, percent of untreated control.
For the substance “958788 (antisense k[5mC]*kT*kG*dG*dG*d[5mC]*dA*dA*dA*dG*dT*dT*d[5mC]*k[5mC]*kT*k[5mC]) [Compound 958788]”, the “YAP1 (% UTC)” value is on record as 54 % UTC.

For the substance “958773 (antisense kA*kG*k[5mC]*dT*dG*dG*dT*dA*dG*dG*dG*d[5mC]*dA*kA*kG*kA) [Compound 958773]”, the “YAP1 (% UTC)” value was 43 % UTC.

Take “958688 (antisense kG*kG*k[5mC]*dT*dA*dT*dG*dT*dA*dG*d[5mC]*d[5mC]*dT*kT*k[5mC]*k[5mC]) [Compound 958688]”: the “YAP1 (% UTC)” value is recorded as 82 % UTC.

As for “958588 (kG*kT*kG*dT*dA*d[5mC]*dT*dT*dA*dG*dG*dT*dG*kA*k[5mC]*kT; antisense) [Compound 958588]”, the “YAP1 (% UTC)” value was 10 % UTC.

On to “958768 (antisense kG*kT*kG*d[5mC]*dA*dA*dG*d[5mC]*dA*dG*dG*dT*dT*k[5mC]*k[5mC]*k[5mC]) [Compound 958768]”, for which the “YAP1 (% UTC)” value came out at 17 % UTC.

Staying with this data set, now noted: Table 12; A-431 cells, 5,000 cells per well, free uptake, 2,000 nM modified oligonucleotide, approx. 48 hours; RTS36584; normalized to RIBOGREEN; Yap1 mRNA relative to untreated control cells.
For the substance “958604 (kA*k[5mC]*kG*d[5mC]*dT*dA*dG*dA*dA*dA*dA*dG*dT*kG*kT*kT; antisense) [Compound 958604]”, the “YAP1 (% UTC)” value stood at 94 % UTC.

As to “958464 (antisense kG*k[5mC]*kT*d[5mC]*dA*dT*dG*d[5mC]*dT*dT*dA*dG*dT*k[5mC]*k[5mC]*kA) [Compound 958464]”, the “YAP1 (% UTC)” value is 3* % UTC.

For “958779 (antisense kT*k[5mC]*kG*dA*dA*dT*dA*dT*dA*dG*dA*dG*dG*k[5mC]*k[5mC]*kT) [Compound 958779]”, the “YAP1 (% UTC)” value is 80 % UTC.

As to “958504 (kA*kT*k[5mC]*dG*dA*dG*dA*dT*dT*dT*dA*dA*dA*kT*kA*kA; antisense) [Compound 958504]”, the “YAP1 (% UTC)” value was 63 % UTC.

As to “958594 (k[5mC]*kT*k[5mC]*dT*dT*dA*dG*dG*dT*d[5mC]*dT*d[5mC]*d[5mC]*kT*kT*k[5mC]; antisense) [Compound 958594]”, the “YAP1 (% UTC)” value was found to be 8 % UTC.

Staying with this data set, now noted: Table 13; A-431 cells, 5,000 cells per well, free uptake, 2,000 nM modified oligonucleotide, approx. 48 hours; RTS36584; normalized to RIBOGREEN; Yap1 mRNA relative to untreated control cells.
For the substance “958460 (antisense kT*k[5mC]*kG*d[5mC]*dA*dT*d[5mC]*dT*dG*dT*dT*dG*d[5mC]*kT*kG*k[5mC]) [Compound 958460]”, the “YAP1 (% UTC)” value was 52 % UTC.

Consider “958640 (antisense kT*kA*kG*dA*dT*dA*dA*d[5mC]*dT*dG*dT*d[5mC]*dT*k[5mC]*k[5mC]*k[5mC]) [Compound 958640]”, for which the “YAP1 (% UTC)” value worked out at 13 % UTC.

Consider “958485 (kA*kG*kA*dG*dG*dT*d[5mC]*dA*dG*d[5mC]*dA*dA*dT*kA*k[5mC]*kA; antisense) [Compound 958485]”, for which the “YAP1 (% UTC)” value was 3 % UTC.

As to “958815 (kG*kG*kG*d[5mC]*dG*dA*dG*dG*dA*dG*dA*d[5mC]*dA*kG*kG*kT; antisense) [Compound 958815]”, the “YAP1 (% UTC)” value is 16 % UTC.

Still in this data set, the particulars now being: Table 26; Yap1 mRNA by 3-10-3 cEt gapmers targeting SEQ ID NO.: 1, and 2; percent of untreated control.
For the substance “1074284 (antisense k[5mC]*kA*kA*dA*dA*d[5mC]*dG*dA*dG*dG*dG*dT*d[5mC]*kA*kA*kG) [compound 1074284]”, the “YAP1 (% UTC)” value came to 21 % UTC.

Regarding “1076076 (kT*kA*kT*d[5mC]*dA*dA*dT*dA*d[5mC]*dT*dT*dT*dA*kG*kT*k[5mC]; antisense) [compound 1076076]”, the “YAP1 (% UTC)” value is reported as 57 % UTC.

Regarding “1074668 (antisense kT*k[5mC]*k[5mC]*d[5mC]*dA*dA*d[5mC]*dA*dA*d[5mC]*dA*dT*dG*k[5mC]*kT*kA) [compound 1074668]”, the “YAP1 (% UTC)” value amounted to 20 % UTC.

The same data set, now with this note: Table 27; Yap1 mRNA by 3-10-3 cEt gapmers targeting SEQ ID NO.: 1, and 2; percent of untreated control.
In the case of “1074253 (antisense kT*k[5mC]*kT*dG*dG*dG*dA*d[5mC]*dA*dG*d[5mC]*dA*dT*kG*kG*k[5mC]) [compound 1074253]”, the “YAP1 (% UTC)” value was found to be 11 % UTC.

“1075181 (kT*kT*kA*dT*dA*dT*dT*dA*d[5mC]*dT*dA*d[5mC]*dA*kA*k[5mC]*k[5mC]; antisense) [compound 1075181]”: the “YAP1 (% UTC)” value is listed as 15 % UTC.

Still in this data set, the particulars now being: Table 29; Yap1 mRNA as percent of untreated control; 3-10-3 cEt gapmers targeting SEQ ID NO.: 1, and 2.
Regarding “1075759 (k[5mC]*k[5mC]*kT*dT*dA*dT*dA*dA*dA*dT*dT*dA*dT*kG*kA*k[5mC]; antisense) [compound 1075759]”, the “YAP1 (% UTC)” value is recorded as 44 % UTC.

For “1075247 (k[5mC]*kT*kA*dA*dG*dA*dT*dA*dA*d[5mC]*dT*dA*dG*kT*kA*kA; antisense) [compound 1075247]”, the “YAP1 (% UTC)” value was found to be 101 % UTC.

As to “1074127 (k[5mC]*k[5mC]*kA*d[5mC]*dT*dG*dG*dT*d[5mC]*dT*dG*dG*d[5mC]*kG*kG*k[5mC]; antisense) [compound 1074127]”, the “YAP1 (% UTC)” value was 57 % UTC.

Turning to “1076495 (kG*kA*kT*dT*dA*dG*dT*dG*dA*dA*dA*dA*dT*kT*k[5mC]*k[5mC]; antisense) [compound 1076495]”, the “YAP1 (% UTC)” value worked out at 30 % UTC.

Staying with this data set, now noted: Table 34; Yap1 mRNA as percent of untreated control; 3-10-3 cEt gapmers targeting SEQ ID NO: 1 and 2; single dose.
Take “1075444 (antisense kA*kT*kA*dA*dA*dT*d[5mC]*d[5mC]*dT*d[5mC]*dA*dT*dG*kT*kG*kG) [compound 1075444]”: the “YAP1 (% UTC)” value was determined as 112 % UTC.

As to “1074964 (antisense kT*kT*kA*dG*dG*d[5mC]*dA*dA*dG*d[5mC]*dA*dG*d[5mC]*kT*kA*kA) [compound 1074964]”, the “YAP1 (% UTC)” value turned out to be 112 % UTC.

Still in this data set, the particulars now being: Table 35; Yap1 mRNA as percent of untreated control; 3-10-3 cEt gapmers targeting SEQ ID NO: 1 and 2; single dose.
Consider “1075957 (k[5mC]*kT*kA*dT*dA*dA*dA*dG*d[5mC]*dA*dA*dT*dG*k[5mC]*kG*kA; antisense) [compound 1075957]”, for which the “YAP1 (% UTC)” value is 28 % UTC.

On to “1075509 (k[5mC]*kA*kT*dA*dA*dT*d[5mC]*d[5mC]*d[5mC]*dT*dG*dA*d[5mC]*kT*kT*kG; antisense) [compound 1075509]”, for which the “YAP1 (% UTC)” value came out at 81 % UTC.

Consider “1074837 (kT*kA*kA*d[5mC]*dA*dA*d[5mC]*dA*dT*dG*d[5mC]*dT*dT*kG*k[5mC]*kG; antisense) [compound 1074837]”, for which the “YAP1 (% UTC)” value came to 11 % UTC.

In the case of “1076469 (kG*kT*kA*dA*dA*dA*dG*dG*dG*dA*dA*d[5mC]*dT*kA*kA*kG; antisense) [compound 1076469]”, the “YAP1 (% UTC)” value is 69 % UTC.
